{
  "source": "patent US6624140B1",
  "about": "“Synthetic peptides with antimicrobial and endotoxin neutralizing properties for management of the sepsis syndrome” (Academisch Ziekenhuis Bij de Universiteit van Amsterdam …, priority 1997, dated 2003)",
  "key": {"[1]": {"system": "IL-6 inducing ability of E. coli 0111:B4 LPS", "assay": "Effect of heparin on neutralization of IL-6 inducing ability of LPS", "format": "cell-based, human", "conditions": "for reduction of LPS neutralizing efficacy by heparin: same heparin concentration (0.4 U/ml)", "experimental": "FIG. 10. Effect of heparin on the efficacy of neutralization of the IL-6 inducing ability of E. coli 0111:B4 LPS by synthetic peptide or Polymyxin B in whole blood diluted 1 in 10. Synthetic peptides at concentrations of 2 μg/ml or PmB at 1 μg/ml was pre-incubated for 30 min at 37° C. with E. coli 0111:B4 LPS at 1 ng/ml in RPMI medium containing heparin in the concentration range of 0.1 to 100 I.U/ml. The residual cytokine inducing ability of the treated endotoxin was determined in diluted whole blood containing heparin at 2 IU/ml after incubation for 16 h at 37° C. Each value is the mean of triplicate determinations corrected for background. Controls contained only LPS.\nThe endotoxin neutralizing activities of the synthetic peptides of the invention were evaluated by investigating the effect on LPS-stimulated release of the pro-inflammatory cytokines, tumor necrosis factor alpha (TNF-α), interleukin-6 (IL-6) or interleukin-8 (IL-8) in a well characterized in vitro human whole blood bioassay system. In one series of experiments, dilutions of E. coli 0111:B4 LPS from 0.2 to 1 ng/ml were pre-incubated with synthetic peptides at 10 μg/ml concentrations in RPMI medium for 30 min at 20° C. and added to diluted whole blood. Cytokine concentrations in the supernatants were determined after further incubation for 16 h at 37° C. in the presence of 5% CO2 by specific and sensitive ELISA kits (CLB, Amsterdam, The Netherlands). In another series of experiments, the effects of synthetic peptides at concentrations of 2,5, 5 and 10 μg/ml on IL-6 induction by 1 ng/ml 0111:B4 LPS was examined after simultaneous addition of synthetic peptide and LPS to diluted whole blood. […] The control peptide BPI(85-102) was ineffective in reducing cytokine production under these conditions even at a 4-fold higher concentration. This probably reflects the differences in binding affinity for Lipid A of BP1 and BP2 compared with the BPI(85-102) peptide of approximately 5 and 10-fold, respectively. An additional factor which may have influenced binding of the control peptide to endotoxin is the presence of heparin employed as an anti-coagulant at a concentration of […] in the assay system. […] On this basis, it was predicted that the extent of reduction of endotoxin neutralizing efficacy would be a function of the differences in affinity between peptides for endotoxin and heparin. To verify this hypothesis, a series of experiments to determine the effect of increasing heparin concentrations on the efficacy of endotoxin neutralization during pre-incubation of synthetic peptide and E. coli 0111:B4 LPS were performed. FIG. 10 illustrates a dose-dependent suppression of endotoxin neutralizing activity of the synthetic peptides by heparin as exemplified by a reduction of IL-6 inhibition. […]"}, "[2]": {"assay": "Solid-state Lipid A binding ELISA microplate assay", "parameters": "species or system Escherichia coli", "conditions": "for apparent binding affinity Ka for Lipid A: biotinylated derivatives, immobilized E. coli D31m4 Lipid A, Scatchard plot", "experimental": "FIG. 3. Lipid A binding affinity of the synthetic peptides. Plastic ELISA microtiter plates were coated with purified E. coli D31m4 Lipid A at 1 μg/ml. Incubations were for 20 min with the indicated concentrations of synthetic peptides BP1, BP2 or BP2.1 or control peptide BPI(85-102) followed by streptavidin-HRP at a dilution of 1 in 20 000. Washing steps to remove excess peptide or streptavidin were with 50 mM Tris buffer pH 7.4 containing 0.05% (v/v) Tween 20. Development was with TMB substrate for 10 min. The optical density (O.D) at 450 nm was measured with a microplate reader and values were corrected for non-specific binding which was generally between 5 and 10%. The plotted values are the corrected means of triplicate experiments.\nDouble-immunodiffusion of the peptides of the invention against ‘rough’ R-type E. coli D31m4 Re-LPS (List Biological Laboratories Inc., Calif.) or the structurally more complex ‘smooth’ S-type E. coli 0111:B4 LPS (Sigma Chemical Co., Rockford, Ill.) was performed in 0.8% (w/v) agarose containing 50 mM Tris and 0.1% (w/v) Triton X100, pH 7.5. for 16 h at 20° C. PmB and BPI(85-102) were included as control compounds for comparative purposes. The microprecipitates formed were visualized by Coommassie brilliant blue staining. […] Since the amount of precipitate formed is a function of valency, the peptides of the invention appear to be capable of a high degree of intermolecular binding of LPS molecules via the Lipid A moieties. […] A turbidity assay was employed for a direct comparison of the endotoxin-binding activity or avidity of selected synthetic peptides according to the invention using the ‘rough’ serotypes E. coli Re or Rc (J5) LPS. PmB and BPI(85-102) were included as control compounds for comparative purposes. The degree of precipitation of endotoxin by the synthetic peptides according to the invention was determined by measurement of the optical density of insoluble complexes formed at 340 nm (FIG. 2). In most instances optimal complexation of Re or J5 LPS by the synthetic peptides of the invention was evident at a molar ratio of peptide to endotoxin of 1 to 2. The control BPI(85-102) peptide was required at a 4-fold molar excess for approximately the same degree of complexation. […] There was no significant difference between complexation of Re or the structurally more complex J5-LPS by the synthetic peptides. […] The Lipid A binding affinity of the synthetic peptides were directly compared in a solid-state endotoxin-binding assay. Binding characteristics of biotinylated derivatives of the synthetic peptides BP1, BP2, BP2.1 and the control peptide BPI(85-102) were determined on ELISA microtiter plates coated with E. coli D31m4 Lipid A. Specific binding of the biotinylated peptides to the immobilized Lipid A was determined by development with Streptavidin-HRP and 3, 5, 3′, 5′ tetra-methylbenzidine (TMB) substrate and expressed as the corrected optical density at 450 nm. […] The affinity of the novel synthetic peptide BP2 for endotoxin of increasing complexity as well as the effect of plasma on binding was examined with the use of the ELISA microplate assay."}},
  "note": "No end group written: not given here.",
  "data": [
    {"substance": "GKWKLFKKAFKKFLKILAC-OH [BP2, Gly-Lys-Trp-Lys-Leu-Phe-Lys-Lys-Ala-Phe-Lys-Lys-Phe-Leu-Lys-Ile-Leu-Ala-Cys]", "values": [
      {"measurement": "molar excess of heparin with respect to LPS for 50% competitive inhibition", "setting": "[1]", "value": "approximately 10,000 fold"},
      {"measurement": "difference in binding affinity for Lipid A compared with BPI(85-102)", "setting": "[2]", "value": "~10", "unit": "fold"},
      {"measurement": "fold higher affinity for Lipid A compared with Polymyxin B", "setting": "[2]", "value": "approximately 20 fold"},
      {"measurement": "apparent binding affinity Ka for Lipid A", "setting": "[2]", "value": "1.9e+08", "unit": "M⁻¹"}
    ]},
    {"substance": "GRLRKKWKAFKKFLKILAC [BP1]", "values": [
      {"measurement": "reduction of LPS neutralizing efficacy by heparin", "setting": "[1]", "value": 75, "unit": "%"},
      {"measurement": "difference in binding affinity for Lipid A compared with BPI(85-102)", "setting": "[2]", "value": "approximately 5 fold"},
      {"measurement": "apparent binding affinity Ka for Lipid A", "setting": "[2]", "value": "9e+07", "unit": "M⁻¹"}
    ]},
    {"substance": "Ile-Lys-Ile-Ser-Gly-Lys-Trp-Lys-Ala-Gin-Lys-Arg-Phe-Leu-Lys-Met-Ser-Gly-(Cys) (IKISGKWKAQKRFLKMSGC; listed as Homo sapiens) [BPI(85-102), reference compound]", "values": [
      {"measurement": "reduction of LPS neutralizing efficacy by heparin", "setting": "[1]", "value": 80, "unit": "%"},
      {"measurement": "apparent binding affinity Ka for Lipid A", "setting": "[2]", "value": "2e+07", "unit": "M⁻¹"}
    ]}
  ]
}
